What was measured:
[1] = system: Kv1.2; details: ref [21],[22]; cited from earlier work
From the text: The Kv1.2 ion channel, a member of voltage-gated potassium channels, is encoded by the KCNA2 gene. Kv1.2 is predominantly expressed in the central nervous system (CNS) abundantly in the cerebellum, hippocampus, and cortex. It plays a crucial role in action potential propagation, neuronal excitability, and synaptic transmission. Gain-of-function (GOF) mutations in KCNA2 cause increased Kv1.2 activity, resulting in excessive potassium conductance leading to neuronal hyperpolarization, and impairing normal brain function. A decade ago, Kv1.2 emerged as a key factor ...

[2] = target: T1, hKv1.3 (Homo sapiens, UniProt P22001); experiment: cell-based; assay type: cell-based
T1 construct: peripheral blood mononuclear cells (PBMCs) were isolated from the healthy donor’s blood; endogenous in cells
From the text: Therefore, we aimed to investigate the effects of Cvill6 and Cvill7 on voltage-gated K^+ ion channels. Among the tested ion channels there were four members from the Shaker-related human Kv1 family, hKv1.1, hKv1.2, hKv1.3, and hKv1.5 (Figure 3A–E), and one member of the human ether-a-go-go-related (hERG) cardiac K^+ channel hKv11.1 (hERG1, Figure 3F). For current recordings, Kv1.1, Kv1.2, and Kv1.5 were transiently expressed in CHO cells while for Kv11.1 a stable HEK293 cell line was used. To record Kv1.3 currents human peripheral T lymphocytes were activated with Phytohemagglutinin A (PHA) to boost Kv1.3 expression and Ca^2+-free intracellular solution to prevent the KCa3.1 channel opening. […] Appropriate voltage protocols were applied to record the K^+ currents from voltage-clamped cells in whole-cell configurations. Toxins were freshly dissolved in the bath solution supplemented with 0.1 mg/mL BSA and applied to the patched cells via a gravity-fed micro-perfusion system with an approximate flow rate of 200 µL/min.
To avoid toxin adsorption onto the plastic surfaces of the perfusion system, 0.1 mg/mL of bovine serum albumin (BSA, Sigma-Aldrich, Budapest, Hungary) was also added into all bath solutions prior to the patch-clamp assay.
Whole-cell currents were recorded using the patch-clamp technique in voltage-clamp mode, following standard protocols. […] Micropipettes were made from GC150F-7.5 borosilicate capillaries (Harvard Apparatus Co., Holliston, MA, USA) using a Sutter P2000 laser puller with tip resistance generally ranging from 3–6 MΩ in the bath solution. Only recordings with a leak current at the holding potential (Vh) of <10% of the peak current at the test potential were included in the data analysis. All recordings were performed at room temperature (20–25 °C). Control and test solutions were perfused to the cells via a gravity-driven micro-perfusion system and AutoMate Perfusion Pencil Multi-Barrel Manifold Tip (AutoMate Scientific, Berkeley, CA, USA), with an approximate flow rate of 200 µL/min, and the excess amount of bath solution was continuously removed from the recording chamber using vacuum suction.
The duration of depolarization pulses was 15 ms for Kv1.3 and 50 ms for Kv1.1 and Kv1.5. However, for Kv1.2, 15–500 ms-long pulses were used to achieve the saturated peak current due to the variable activation kinetics of this channel. […] KCa2.2 and KCa3.1 currents were recorded by applying 150 ms-long voltage ramps to +50 mV from −120 mV every 10 s; the Vh was set to −85 mV.
Before analysis, all current traces were digitally filtered using three-point boxcar smoothing and were corrected for ohmic leakage, only if required. […] Data points in the concentration–response curve represent the mean RCF values of three to six individual cells, with error bars denoting the standard error of the mean (SEM). The data points for each concentration were fitted using the Hill equation: RCF = IC50^H/(IC50^H + [toxin]^H), where IC50 is the dissociation constant, H represents the Hill coefficient, and [toxin] is the concentration of the toxin.
To study the binding kinetics of Cvill toxins, the peak current during the application of toxin at time point t (It) was normalized to the peak current (I0) before the toxin exposure (Inorm = It/I0) and plotted as a function of time.

[3] = target: T2, hKv1.1 (Homo sapiens, UniProt Q09470); experiment: cell-based; assay type: cell-based
T2 construct: host or cells: CHO cells, transient transfection (Lipofectamine 2000)
Experimental: (§1) Chinese hamster ovary (CHO) cells (generously provided by Yosef Yarden, Weizmann Institute of Science, Rehovot, Israel) or human embryonic kidney (HEK293) cells were cultured and maintained in Dulbecco’s modified Eagle medium (DMEM, Thermo Fisher Scientific, Waltham, MA, USA) supplemented with 2 mM L-glutamine, 10% fetal bovine serum (FBS), 100 µg/mL streptomycin, and 100 U/mL penicillin-g (Sigma-Aldrich, Budapest, Hungary) following standard culturing conditions [52]. For transient expression of ion channels, CHO cells were transfected using the Lipofectamine 2000 kit (Invitrogen, Waltham, MA, USA) following the manufacturer’s instructions with plasmids encoding specific ion channels, including hKv1.1 (KCNA1 gene), hKv1.2 (KCNA2 gene), and hKv1.5 (KCNA5 gene) in a pCMV6-AC-GFP vector (OriGene Technologies), hKCa2.2 (KCNN2 gene) in a pCDN3 plasmid (for this transfection a GFP containing plasmid was co-transfected, courtesy of Bernard Attali, Tel Aviv University, Tel Aviv, Israel), and hKCa3.1 (KCNN4 gene) in a pEGFP-C1 vector (a kind gift by H. Wulff, University of California, Davis, CA, USA). […] Electrophysiological recordings were typically conducted 24 to 48 h after transfection.
(§2) Whole-cell currents were recorded using the patch-clamp technique in voltage-clamp mode, following standard protocols [73]. […] Micropipettes were made from GC150F-7.5 borosilicate capillaries (Harvard Apparatus Co., Holliston, MA, USA) using a Sutter P2000 laser puller with tip resistance generally ranging from 3–6 MΩ in the bath solution. Only recordings with a leak current at the holding potential (Vh) of <10% of the peak current at the test potential were included in the data analysis. All recordings were performed at room temperature (20–25 °C). Control and test solutions were perfused to the cells via a gravity-driven micro-perfusion system and AutoMate Perfusion Pencil Multi-Barrel Manifold Tip (AutoMate Scientific, Berkeley, CA, USA), with an approximate flow rate of 200 µL/min, and the excess amount of bath solution was continuously removed from the recording chamber using vacuum suction.
(§3) The duration of depolarization pulses was 15 ms for Kv1.3 and 50 ms for Kv1.1 and Kv1.5. However, for Kv1.2, 15–500 ms-long pulses were used to achieve the saturated peak current due to the variable activation kinetics of this channel [74].

[4] = system: hKv1.5; assay type: cell-based, human
Experimental: Chinese hamster ovary (CHO) cells (generously provided by Yosef Yarden, Weizmann Institute of Science, Rehovot, Israel) or human embryonic kidney (HEK293) cells were cultured and maintained in Dulbecco’s modified Eagle medium (DMEM, Thermo Fisher Scientific, Waltham, MA, USA) supplemented with 2 mM L-glutamine, 10% fetal bovine serum (FBS), 100 µg/mL streptomycin, and 100 U/mL penicillin-g (Sigma-Aldrich, Budapest, Hungary) following standard culturing conditions [52]. For transient expression of ion channels, CHO cells were transfected using the Lipofectamine 2000 kit (Invitrogen, Waltham, MA, USA) following the manufacturer’s instructions with plasmids encoding specific ion channels, including hKv1.1 (KCNA1 gene), hKv1.2 (KCNA2 gene), and hKv1.5 (KCNA5 gene) in a pCMV6-AC-GFP vector (OriGene Technologies), hKCa2.2 (KCNN2 gene) in a pCDN3 plasmid (for this transfection a GFP containing plasmid was co-transfected, courtesy of Bernard Attali, Tel Aviv University, Tel Aviv, Israel), and hKCa3.1 (KCNN4 gene) in a pEGFP-C1 vector (a kind gift by H. Wulff, University of California, Davis, CA, USA). […] Electrophysiological recordings were typically conducted 24 to 48 h after transfection. […]
Whole-cell currents were recorded using the patch-clamp technique in voltage-clamp mode, following standard protocols [73]. […]

[5] = target: T3, hKv1.2 (Homo sapiens, UniProt P16389); experiment: Whole-cell patch-clamp, hKv1.2 current in transiently transfected CHO cells; assay type: cell-based; details: positive control
T3 construct: host or cells: CHO cells, transient transfection (Lipofectamine 2000)
T3 sequence (P16389 whole entry): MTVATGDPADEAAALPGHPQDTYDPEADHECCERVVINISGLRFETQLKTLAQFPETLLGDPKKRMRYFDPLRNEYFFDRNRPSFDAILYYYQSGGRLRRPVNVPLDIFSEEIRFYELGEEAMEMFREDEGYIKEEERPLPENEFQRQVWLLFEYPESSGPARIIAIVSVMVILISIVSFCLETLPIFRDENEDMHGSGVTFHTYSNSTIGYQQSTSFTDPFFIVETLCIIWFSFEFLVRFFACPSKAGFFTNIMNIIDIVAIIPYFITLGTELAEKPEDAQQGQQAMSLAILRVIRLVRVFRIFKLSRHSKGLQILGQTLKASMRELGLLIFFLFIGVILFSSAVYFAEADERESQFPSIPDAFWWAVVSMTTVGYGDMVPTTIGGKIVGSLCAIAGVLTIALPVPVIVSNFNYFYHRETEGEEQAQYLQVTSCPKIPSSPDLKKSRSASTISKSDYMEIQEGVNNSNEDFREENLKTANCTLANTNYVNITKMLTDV
Experimental: as §1, §2, §3

T2 sequence (Q09470 whole entry): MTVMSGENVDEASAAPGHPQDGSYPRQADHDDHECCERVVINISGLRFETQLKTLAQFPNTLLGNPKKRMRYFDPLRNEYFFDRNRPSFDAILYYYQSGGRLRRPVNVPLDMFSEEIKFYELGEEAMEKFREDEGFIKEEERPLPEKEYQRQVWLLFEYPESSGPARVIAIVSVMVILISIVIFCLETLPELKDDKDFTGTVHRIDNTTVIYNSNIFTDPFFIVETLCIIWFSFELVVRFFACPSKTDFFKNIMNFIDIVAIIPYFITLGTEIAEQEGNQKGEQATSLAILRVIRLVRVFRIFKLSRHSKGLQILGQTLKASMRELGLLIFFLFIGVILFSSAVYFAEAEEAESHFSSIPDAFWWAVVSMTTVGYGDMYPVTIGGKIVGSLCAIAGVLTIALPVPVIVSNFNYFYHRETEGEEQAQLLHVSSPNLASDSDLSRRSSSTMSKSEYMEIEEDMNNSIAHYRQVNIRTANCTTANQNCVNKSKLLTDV
T1 sequence (P22001 whole entry): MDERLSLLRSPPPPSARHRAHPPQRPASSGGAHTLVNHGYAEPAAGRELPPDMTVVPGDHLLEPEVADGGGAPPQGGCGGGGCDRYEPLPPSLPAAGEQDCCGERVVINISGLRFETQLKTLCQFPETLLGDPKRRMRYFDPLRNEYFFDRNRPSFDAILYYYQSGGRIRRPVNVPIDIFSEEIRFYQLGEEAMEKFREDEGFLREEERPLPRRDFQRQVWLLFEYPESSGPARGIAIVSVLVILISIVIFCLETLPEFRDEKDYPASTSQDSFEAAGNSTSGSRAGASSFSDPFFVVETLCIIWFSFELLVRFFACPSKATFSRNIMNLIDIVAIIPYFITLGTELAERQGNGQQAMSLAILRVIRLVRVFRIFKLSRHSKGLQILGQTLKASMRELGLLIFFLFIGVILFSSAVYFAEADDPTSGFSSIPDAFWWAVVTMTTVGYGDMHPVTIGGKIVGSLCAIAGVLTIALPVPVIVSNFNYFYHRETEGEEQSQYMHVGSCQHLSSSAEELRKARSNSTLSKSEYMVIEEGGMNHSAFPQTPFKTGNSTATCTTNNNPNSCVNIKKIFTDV

**Q.** Which “effect on gain-of-function defects in patients with KCNA2-related encephalopathy” value [1] does the source give for Nc1ccncc1 [4-aminopyridine] here?
**A.** can mitigate the gain-of-function defects in patients

**Q.** What does the source list for CC[N+](CC)(CC)CC [TEA^+, tetraethylammonium chloride, reference compound]?
**A.** inhibition of Kv1.3 by positive control [2]: fully reversible inhibitors; inhibition of Kv1.1 by positive control [3]: fully reversible inhibitors; inhibition of Kv1.5 by positive control [4]: fully reversible inhibitors

**Q.** With charybdotoxin [reference compound] as the compound, how does the “inhibition of Kv1.2 by positive control” value [5] read?
**A.** fully reversible inhibitors
